Data taken from paper PMC3226492, “Isomer Profiles of Perfluorochemicals in Matched Maternal, Cord, and House Dust Samples: Manufacturing Sources and Transplacental Transfer” (Environmental Health Perspectives, 2011).
Where two headings read alike, the source gives them in different places.

What was measured:
[1] = Transplacental transfer efficiency (TTE): cord serum at delivery divided by maternal serum concentration, present study; format: in vivo, human; details: for TTE calculated from cord:maternal serum concentrations, arithmetic mean / TTE calculated from cord:maternal serum concentrations, maximum / TTE calculated from cord:maternal serum concentrations, median / TTE calculated from cord:maternal serum concentrations, minimum: cord serum at delivery / maternal serum at 15 weeks of gestation; for Mean cord:maternal serum concentration: Present study
[2] = Total PFC concentrations in maternal and cord sera by HPLC-MS/MS; format: in vivo, human; details: for mean concentration in cord serum: cord serum at delivery; for mean concentration in maternal serum: 15 weeks of gestation
Procedure: Blood collection. Samples (n = 20) analyzed in this study are a subset of the Chemicals, Health and Pregnancy (CHirP) cohort recruited in 2007–2008 in Vancouver (BC, Canada) ([Webster et al. 2011]). All participants provided informed consent. Laboratory personnel collected blood samples from pregnant volunteers in Vancouver at 15 weeks of gestation, and samples of cord blood (n = 20) were collected at delivery. After serum separation, all samples were stored at –80°C. Ethical clearance was obtained from the research ethics boards of the University of British Columbia, the University of Alberta, Health Canada, and the three participating hospitals.
Serum preparation. The method of [Kuklenyik et al. (2004)] was adapted for the extraction of PFCs from serum using a Rapid Trace system (Caliper Life Sciences, Hopkinton, MA, USA). The solid-phase extraction cartridge (Oasis-HLB, Waters, Milford, MA, USA; 60 mg/3 mL) was conditioned with 2 mL methanol followed by 2 mL of 0.1 M formic acid. Serum was prepared for extraction by mixing 3 mL of 0.1 M formic acid with 1.0 mL serum. After the addition of mass-labeled internal standards (10 ng each), the mixture was vortexed and sonicated for 20 min. Prepared serum was added to the column and washed successively with 3 mL of 0.1 M formic acid, 6 mL of 50% 0.1 M formic acid/50% methanol, and 1 mL of 1% ammonium hydroxide. The cartridge was drained by vacuum, and PFCs were eluted with 1.0 mL of 1% ammonium hydroxide in acetonitrile. The eluate was concentrated to 100 μL followed by the addition of 200 μL of 90% 20 mM acetic acid in 10% methanol. Method blanks containing calf serum, a calf serum sample spiked at 0.5 ng/mL of each PFC, and a human serum sample spiked at 10 ng/mL were analyzed with the study samples.
Total PFC analysis. For total PFC concentrations, separation was by HPLC on a 150-mm Synergi Hydro-RP C-18 column (Phenomenex, Torrance, CA, USA). Gradient elution at 600 μL/min used A [20 mM ammonium acetate (pH 4) in water] and B (methanol) mobile phases. Initial conditions were 60% A for 1 min, ramped to 20% A by 3 min, a 5-min hold, an increase to 100% B by 8.5 min, and a hold until 14 min, at which time initial conditions were reestablished. MS/MS data were collected on an Applied Biosystems API 3000 mass spectrometer (Applied Biosystems, Carlsbad, CA, USA) using electrospray ionization in negative-ion mode [for mean recoveries of total PFCs in serum and dust, see Supplemental Material, Table 1 (http://dx.doi.org/10.1289/ehp.1003265)].

[3] = cited from earlier work

Structure (SMILES)	TTE calculated from cord:maternal serum concentrations, arithmetic mean [1]	TTE calculated from cord:maternal serum concentrations, maximum [1]	TTE calculated from cord:maternal serum concentrations, median [1]	TTE calculated from cord:maternal serum concentrations, minimum [1]	mean concentration in cord serum [2]	mean concentration in maternal serum [2]	Mean cord:maternal serum concentration ([1]; Canada, 2007, n 20, maternal serum sampled in the second trimester)	Mean cord:maternal serum concentration ([1]; TTE adjusted from 15 weeks to time of delivery (~ 40 weeks) using data from Monroy et al. (2008))	Mean cord:maternal serum concentration ([3]; Canada, 2004–2005, n 101, ref Monroy et al. 2008)	Mean cord:maternal serum concentration ([3]; Denmark, 1996–2002, n 50, maternal serum sampled in the first trimester, ref Fei et al. 2007)	Mean cord:maternal serum concentration ([3]; Denmark, 1996–2002, n 50, maternal serum sampled in the second trimester, ref Fei et al. 2007)	Mean cord:maternal serum concentration ([3]; Faroe Islands, 2000, n 12, ref Needham et al. 2011)	Mean cord:maternal serum concentration ([3]; Germany, 2003, n 11, ref Midasch et al. 2007)	Mean cord:maternal serum concentration ([3]; Germany, 2007–2009, n 27, ref Fromme et al. 2010)	Mean cord:maternal serum concentration ([3]; Korea, 2007, n 20, ref Kim et al. 2011)	Mean cord:maternal serum concentration ([3]; South Africa, 2005–2006, n 58, ref Hanssen et al. 2010)
O=S(=O)(O)C(F)(F)C(F)(F)C(F)(C(F)(F)F)C(F)(F)C(F)(F)C(F)(F)C(F)(F)F (stereo not drawn) [3m-PFOS]	0.67	1.12	0.68	0.21	–	–	–	–	–	–	–	–	–	–	–	–
O=C(O)C(F)(F)C(F)(F)C(F)(F)C(F)(F)C(F)(F)C(F)(F)C(F)(F)F [n-PFOA]	0.62	1.00	0.61	0.26	–	–	–	–	–	–	–	–	–	–	–	–
O=C(O)C(F)(F)C(F)(F)C(F)(F)C(F)(F)C(F)(F)C(F)(F)C(F)(F)C(F)(F)C(F)(F)F [Total PFDA, perfluorodecanoate]	0.34	1.10	0.23	0.00	0.1 ng/mL	0.4 ng/mL	–	–	–	–	–	–	–	–	–	–
O=C(O)C(F)(F)C(F)(C(F)(F)F)C(F)(F)C(F)(F)C(F)(F)C(F)(F)F (stereo not drawn) [3m-PFOA]	0.76	–	0.68	0.07	–	–	–	–	–	–	–	–	–	–	–	–
O=S(=O)(O)C(F)(F)C(F)(F)C(F)(F)C(F)(C(F)(F)F)C(F)(F)C(F)(F)C(F)(F)F (stereo not drawn) [4m-PFOS]	0.55	0.85	0.52	0.20	–	–	–	–	–	–	–	–	–	–	–	–
O=C(O)C(F)(F)C(F)(F)C(F)(F)C(C(F)(F)F)(C(F)(F)F)C(F)(F)F [tb-PFOA]	0.25	0.48	0.25	0.02	–	–	–	–	–	–	–	–	–	–	–	–
O=C(O)C(F)(F)C(F)(F)C(F)(F)C(F)(F)C(F)(C(F)(F)F)C(F)(F)F [Iso-PFOA]	0.84	2.56	0.67	0.16	–	–	–	–	–	–	–	–	–	–	–	–
O=C(O)C(F)(F)C(F)(F)C(F)(F)C(F)(F)C(F)(F)C(F)(F)C(F)(F)C(F)(F)F [Total PFNA, perfluorononanoate]	0.41	0.78	0.38	0.13	0.4 ng/mL	0.9 ng/mL	–	–	–	–	–	–	–	–	–	–
O=C(O)C(F)(F)C(F)(F)C(F)(F)C(F)(F)C(F)(F)C(F)(F)C(F)(F)F [Total PFOA, perfluorooctanoate]	0.61	0.96	0.63	0.32	1.1 ng/mL	1.8 ng/mL	0.61	0.71	0.81	0.55	0.68	0.72	1.26	0.70	0.69	0.71
